Measurements reported in paper PMC8744131, “Dimensionless parameter predicts bacterial prodrug success” (Molecular Systems Biology, 2022).
Converted amounts (≈) assume the structure as drawn. Read-outs that look alike come from different tables or passages of the source. Where no end group is shown, it is not given here. The star is where a group is joined. 5FAM = O=C1OC2(c3ccc(O)cc3Oc3cc(O)ccc32)c2ccc(C(=O)*)cc21; Dabcyl = CN(C)c1ccc(N=Nc2ccc(C(=O)*)cc2)cc1

Columns and labels:
UTI89 E. coli = test: Bacterial toxicity of TMP and TM-TMP (CFU / MIC); format: cell-based
Source text: Just as with our earlier experiments, we measured (i) the number of bacteria and (ii) the number of drug molecules consumed in each killing reaction to calculate the parameters a and b, respectively (Fig EV8).

[1] = tested on: OmpT expressed on the surface of E. coli K‐12 BW25113; test: Cleavage assay with OmpT expressed on the surface of E. coli; format: biochemical; conditions: 37°C, n = 3
Source text: To measure OmpT activity, we synthesized an activity probe (McCarter et al, [2004]; Kwong et al, [2013], [2021]; Holt et al, [2017], [2018]; Mac et al, [2019]; Zhuang et al, [2019]) with free linker peptides containing a fluorophore‐quencher pair, which produced an increase in fluorescence upon proteolytic cleavage.
(§1) Positive control for AMP toxicity (black bar).

OmpT [2] = molecular target: OmpT (Escherichia coli, UniProt P09169); conditions: Fig EV5B, text printed in picture
Sequence of OmpT (Escherichia coli, UniProt P09169) (P09169 21-317): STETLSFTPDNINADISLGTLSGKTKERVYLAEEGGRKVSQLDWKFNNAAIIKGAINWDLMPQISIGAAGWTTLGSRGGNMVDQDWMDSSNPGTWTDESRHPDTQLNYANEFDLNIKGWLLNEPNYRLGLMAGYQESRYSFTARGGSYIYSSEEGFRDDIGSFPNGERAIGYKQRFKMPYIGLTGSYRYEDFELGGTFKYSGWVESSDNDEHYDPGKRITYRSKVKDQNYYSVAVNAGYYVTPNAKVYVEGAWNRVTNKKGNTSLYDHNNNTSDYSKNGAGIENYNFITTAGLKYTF
Source text: (§2) This allowed us to more rigorously test the model by predicting bacteria‐prodrug response curves across nine distinct combinations of kcat and r values before performing the physical experiments. We experimentally controlled the nine distinct combinations of kcat and r values by altering the ambient temperature and concentration of broth (conditions labeled A1–3, B1–3, and C1–3; Table EV3). We affected the enzymatic activation rate of the prodrug, kcat, by changing temperature as described by the Arrhenius equation (Calvert, [1990]). […] To experimentally validate this, we incubated bacteria with AMP prodrug under the defined nine conditions and quantified the number of living bacteria longitudinally over the course of a 24‐h treatment window.

DH5α E. coli [3] = test: Bacterial Advantage Heuristic (BAH) / model, AMP prodrug system
Source text: as §2

OmpT on DH5α E. coli = OmpT on DH5α E. coli (Escherichia coli, UniProt P09169)
Sequence of OmpT on DH5α E. coli (P09169 21-317): as above
Source text: as §2
Figure EV2 Calculating bacterial growth rate and enzymatic activity in the AMP prodrug system • Schematic of the simplified model that only includes bacteria and a substrate probe, which was used to quantify r and kcat from bacterial cleavage assays. • Bacterial cleavage assays (blue line) where we are measuring the increase in fluorescence from the cleavage of the fluor‐quencher substrate probe over time. Bacteria and fluor‐quencher probe are incubated together for 12 h. Then, we fit a simplified model to the results, which is plotted as the dashed line. Each panel is labeled with the environmental condition as described in Table EV3 and correlating with Fig 4.
Table EV3. Additional information for experimental conditions. This information includes incubation temperature (second column from left), the concentration of LB broth by volume (third column from left), growth rate, r (fourth column from left), enzyme catalytic turnover, kcat (fifth column from left), and the bacterial advantage heuristic, BAH (sixth column from left).

DH5α E. coli [4] = test: Short-time drug dosing experiment with free AMP for a and b; format: cell-based; conditions: DH5a + AMP prodrug model; from free AMP dosing, t < 10 min, n = 3
Experimental: Experiment was taken at a short time interval (t < 10 min) so we could calculate the number of bacteria and drug copies consumed in each killing reaction.

DH5α E. coli [5] = test: Bacteria viability assay, AMP prodrugs with TEV protease or inhibitor; format: cell-based; conditions: CFU, n = 3–4
OmpT [6] = conditions: micromolar concentrations; ref Brannon et al, 2015; cited from earlier work
Source text: To validate the predictions of our mathematical model with an in vitro bacteria‐activated prodrug system, we synthesized a protease‐activated AMP prodrug. This AMP prodrug comprised cationic (polyarginine, R9) antimicrobial peptides (AMP) in charge complexation with anionic peptide locks (polyglutamic acid, E13) by a linker peptide (RRS|RRV) specific for the ubiquitous bacterial protease OmpT (Olson et al, [2009]; preprint: Holt et al, [2019]). Upon proteolytic cleavage of the linker, the hairpin prodrug is unlocked to release free AMP (Fig 3A). To measure OmpT activity, we synthesized an acti ...

DH5α E. coli [7] = test: Bacteria viability assay (CFU), AMP system; format: cell-based
Experimental: as §1
Figure EV4 Parent drug control for all conditions in AMP prodrug system Parent drug (R9, polyarginine) controls for conditions testing different media conditions and temperatures in the AMP prodrug studies.
DH5α Escherichia coli were a gift from Todd Sulchek's BioMEMS lab at Georgia Tech. E. coli were cultured in LB broth (Lennox) at 37°C and plated on LB agar (Lennox) plates. LB broth was purchased from Millipore Sigma (Burlington, MA) and LB agar was purchased from Invitrogen (Carlsbad, CA). AMP and locked AMP were custom ordered from Genscript (Piscataway, NJ). See Table EV1 for more information. Bacteria were grown to a concentration of 10^9 CFU/ml before being used for experiments. Concentration was estimated by measuring the OD600 of the bacterial suspension, and assuming an OD600 of 1.000 corresponds to a concentration of 8 × 10^8 CFU/ml. Bacterial cell viability was measured by making eight 10‐fold serial dilutions, and plating three 10‐µl spots on an LB agar plate. Plates were incubated overnight at 37°C, and CFUs were counted. Untreated bacteria CFU counts served as control for 0% cytotoxicity, and bacteria + IPA (or 0 countable CFUs) served as control for 100% cytotoxicity.

COc1cc(Cc2cnc(N)nc2N)cc(OC)c1OC [TMP, trimethoprim]
change in number of bacteria killed on adding GSH (UTI89 E. coli; 5 mM GSH vs no GSH, surviving CFU): did not significantly change
efficiency at killing bacteria vs TM-TMP (UTI89 E. coli; 37°C, 75% broth, n = 3): significantly more efficient at killing UTI89 bacteria
MIC (UTI89 E. coli; Escherichia coli, 37°C, 75% broth, n = 3, read-out: minimum inhibitory concentration (MIC)): 3.2 µM (≈ 0.929 µg/mL)

Dabcyl-RRSRRVK(5FAM) [OmpT Probe, free linker peptide RRSRRV with fluorophore-quencher pair]
linker specificity: cleavage activity by parent strain vs OmpT knockout ([1]; OmpT-positive E. coli K‐12 BW25113 vs OmpT genetic knockout, fluorescence 485/528 nm, 60–120 min): only observed activity in samples incubated with the parent strain (i.e., OmpT‐positive)
cleavage activity in presence of aprotinin ([1]; recombinant OmpT or E. coli surface OmpT with aprotinin, fluorescence): no activity in samples containing the serine protease inhibitor, Aprotinin

EEEEEEEEEEEEERRSRRVRRRRRRRRR [Locked AMP (linker 1), R9 antimicrobial peptide locked by E13 via OmpT-cleavable linker RRSRRV; default locked AMP]
catalytic efficiency kcat/Km (rank in words) (OmpT [2]): High
ratio of a to b (DH5α E. coli [3]): 0.5 × 10^−11
kcat (OmpT on DH5α E. coli; condition A1: 37 °C, 0% LB broth, r 0.1 h^-1): 25 h^-1 x 10^10
kcat (OmpT on DH5α E. coli; condition A2: 30 °C, 2% LB broth, r 0.14 h^-1): 13.6 h^-1 x 10^10
kcat (OmpT on DH5α E. coli; condition A3: 37 °C, 2% LB broth, r 0.3 h^-1): 22 h^-1 x 10^10
kcat (OmpT on DH5α E. coli; condition B1: 37 °C, 4% LB broth, r 0.5 h^-1): 15 h^-1 x 10^10
kcat (OmpT on DH5α E. coli; condition B2: 37 °C, 6% LB broth, r 0.85 h^-1): 13.6 h^-1 x 10^10
kcat (OmpT on DH5α E. coli; condition B3: 37 °C, 20% LB broth, r 2.2 h^-1): 1 h^-1 x 10^10
kcat (OmpT on DH5α E. coli; condition C1: 30 °C, 20% LB broth, r 1.4 h^-1): 5.2 h^-1 x 10^10
kcat (OmpT on DH5α E. coli; condition C2: 30 °C, 66% LB broth, r 1.6 h^-1): 4 h^-1 x 10^10
kcat (OmpT on DH5α E. coli; condition C3: 37 °C, 66% LB broth, r 3 h^-1): 6 h^-1 x 10^10
a, bacterial death rate constant (DH5α E. coli [4]): 1e-13 µL/h
b, drug decay rate constant (DH5α E. coli [4]): 0.02 µL/h
elimination of bacteria (DH5α E. coli [5]; OmpT-specific locked AMP alone, natively expressed OmpT): elimination of bacteria

EEEEEEEEENLYFQGRRRRRRRR [Locked AMP (linker 3), AMP prodrug with linker ENLYFQG, specific to TEV protease]
catalytic efficiency kcat/Km (rank in words) (OmpT [2]): Lowest
reduction of bacteria load (DH5α E. coli [5]; TEV-specific locked AMP alone (no TEV protease)): did not significantly reduce bacteria load
elimination of bacteria (DH5α E. coli [5]; TEV-specific locked AMP plus TEV protease): elimination of bacteria

aprotinin [reference compound]
inhibition of OmpT (OmpT [6]): inhibits OmpT when present in micromolar concentrations
reduction of bacteria load (DH5α E. coli [5]; control with OmpT inhibitor aprotinin plus OmpT-specific locked AMP): did not significantly reduce bacteria load

polyarginine [free AMP]
reduction in colonies vs untreated controls (DH5α E. coli [7]; free AMP, CFU, n = 3–4 biological replicates, one-way ANOVA): significant reduction in colonies compared to untreated controls
treatment success (DH5α E. coli [7]; nine conditions A1–C3 (30/37 °C, 0–66% LB broth), 24 h, serial CFU, n = 3): successfully treated bacteria in all nine conditions tested
